These results are taken from publication PMC9034499, “RORγt agonist enhances anti-PD-1 therapy by promoting monocyte-derived dendritic cells through CXCL10 in cancers” (Journal of Experimental & Clinical Cancer Research : CR, 2022).

In one series the target is T1, RORα (Homo sapiens, UniProt P35398).
T1 construct: expressed in transfected cells
T1 sequence (P35398 1-523): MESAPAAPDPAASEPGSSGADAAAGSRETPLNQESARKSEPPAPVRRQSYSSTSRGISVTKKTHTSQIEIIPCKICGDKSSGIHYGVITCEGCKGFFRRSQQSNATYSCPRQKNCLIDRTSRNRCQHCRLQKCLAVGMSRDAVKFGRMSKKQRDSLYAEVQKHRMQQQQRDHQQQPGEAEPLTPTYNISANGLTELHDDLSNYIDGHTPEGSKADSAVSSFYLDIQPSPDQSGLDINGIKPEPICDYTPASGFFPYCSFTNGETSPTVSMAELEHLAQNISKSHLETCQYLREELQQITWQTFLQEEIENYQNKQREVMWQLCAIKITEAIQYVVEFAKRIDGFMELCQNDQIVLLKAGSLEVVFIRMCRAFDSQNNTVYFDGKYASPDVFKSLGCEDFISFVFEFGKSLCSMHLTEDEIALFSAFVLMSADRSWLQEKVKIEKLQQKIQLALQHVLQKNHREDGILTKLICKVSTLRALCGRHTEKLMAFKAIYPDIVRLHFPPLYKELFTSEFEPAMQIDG
Description: RORα Gal4 reporter gene assay. The class given is cell-based. (In general: Reporter assays use an easily measured gene product as a stand-in for the process of interest.)

Series [1] in a line: Pharmacokinetics in C57BL/6 mice. The following applies: male, C57BL/6, mouse, plasma; for Tmax: n = 3. The class given is in vivo. The protocol: Male C57BL/6 mice were divided into two groups: 8-074 single intravenous injection group (2 mg/kg, n = 3) and 8-074 single gavage group (5 mg/kg, n = 3). After administration, blood samples were collected at 0.25, 0.5, 1, 2, 5, 7, and 24 h. Then the plasma samples were separated and stored at − 80 °C until the analysis. After being thawed at room temperature, 10 μL of plasma samples were added with 150 μL of precipitant containing the internal standard (verapamil 40 ng/mL) for the protein precipitation. The supernatant was mixed with a suitable volume of water and then analyzed using liquid chromatography in tandem with mass spectrometry (LC-MS/MS). The concentration of 8–074 in the plasma of the C57 mice after administration was determined using the inter-run standard curve samples (linear range of 3–10,000 ng/mL) and quality control samples.

In a further series the target is T2, RORβ (Homo sapiens, UniProt Q92753).
T2 construct: expressed in transfected cells
T2 sequence (Q92753 1-470): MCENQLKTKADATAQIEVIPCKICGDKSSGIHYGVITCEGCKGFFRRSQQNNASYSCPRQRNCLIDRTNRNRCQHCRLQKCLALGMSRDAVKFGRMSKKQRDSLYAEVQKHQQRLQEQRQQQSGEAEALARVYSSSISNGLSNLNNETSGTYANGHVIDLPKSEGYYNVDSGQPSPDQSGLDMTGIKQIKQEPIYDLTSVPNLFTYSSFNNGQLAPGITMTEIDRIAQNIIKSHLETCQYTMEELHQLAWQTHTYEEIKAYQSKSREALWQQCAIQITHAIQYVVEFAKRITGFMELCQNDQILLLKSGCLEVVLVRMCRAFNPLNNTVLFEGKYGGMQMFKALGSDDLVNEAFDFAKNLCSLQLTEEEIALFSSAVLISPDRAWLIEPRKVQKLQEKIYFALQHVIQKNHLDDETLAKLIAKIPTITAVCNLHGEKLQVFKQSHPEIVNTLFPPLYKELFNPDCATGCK
Description: RORβ Gal4 reporter gene assay. The class given is cell-based. The protocol:
The hRORγt LBD coding sequence was inserted into a pBIND expression vector (Promega, E1581) to express the ROR-GAL4 binding domain chimeric receptors. This expression vector and a reporter vector (pGL4.35, which carries a stably integrated GAL4 promoter-driven luciferase reporter gene [luc2P/9XGAL4 UAS/Hygro]) were co-transfected into the HEK293T host cells. The assay was performed according to a previous study. EC50 of the sigmoidal fits were analyzed using Prism 5 and a four-parameter logistic fit equation, Y = bottom + (top–bottom) / (1 + 10(logEC50 − X) × hill slope). "X" is the log of compound concentration, and "Y" is the response, which increases as X increases. Y starts at "bottom" and goes to "top" with a sigmoid shape.
Supplementary file 13046_2022_2289_MOESM2_ESM.pdf: Additional file 2: Fig. S2. Selectivity of RORγt agonists in vitro. […] Lymphoma EL4 cells were treated with various concentrations of 8-074 for 48 hours and analyzed by flow cytometry after Annexin V-FITC/PI staining. […] (h) The relative mRNA expression of Cd19 in B cells as determined by qPCR. […] (i) Relative mRNA expression of Il-1β levels in macrophages as determined by qPCR. ***P < 0.001. (j) Relative mRNA expression of Il-6 in macrophages as determined by qPCR. *P < 0.05. (k) Relative mRNA expression of Il-10 in macrophages as determined by qPCR. *P < 0.05. […]

In general, EC50 refers to the midpoint of the concentration-response curve. Read a low EC50 as a more potent agent. Usually MRT inf stands for a mean duration of stay, worked out from the concentration-time curve. For orientation: AUC(0-inf) means the area under the concentration-time curve extrapolated to infinity. The AUC(0-t) is the area under the concentration-time curve up to a stated or last time point. Low values mean less exposure, high ones more exposure. A word on the Cmax: it is the highest concentration seen after dosing. A word on the clearance: it is the rate of elimination divided by the concentration. Read a high clearance as a high capacity for elimination. As a reminder, the Tmax is the time from dosing to the highest level. The bioavailability is dose-corrected exposure relative to a reference, in per cent. The half-life is the time needed for the level to fall by half in the phase considered. The low end stands for rapid decline, the high end for slow decline. Broadly, the AUC is the area under the concentration-time curve, a measure of exposure.

Structures are written as SMILES.

As for `CCS(=O)(=O)c1ccc(CC(=O)Nc2ccc(-c3ccc(CC(C)C)c(C#N)c3)c(C(F)(F)F)c2)cc1` [8-074], the half-maximal effective concentration (EC50) at RORα and at RORβ was greater than 10 µM in each case. The mean residence time (MRT inf) in series [1] (iv, 2 mg/kg, i.v. 2 mg/kg, first MRTINF line (r8)) was determined as 3.84 ± 0.33 h; in series [1] (iv, 2 mg/kg, i.v. 2 mg/kg, second MRTINF line (r9)), 2.97 ± 0.25 h; in series [1] (po, 5 mg/kg, i.g. 5 mg/kg, first MRTINF line (r8)), 4.49 ± 1.2 h; in series [1] (po, 5 mg/kg, i.g. 5 mg/kg, second MRTINF line (r9)) it was 3.34 ± 0.52 h. Further, the total exposure AUC(0-inf) in series [1] (iv, i.v. 2 mg/kg) is 20600 ng·h/mL; in series [1] (po, i.g. 5 mg/kg) it was 19800 ng·h/mL. Besides, the AUC(0-t) in series [1] (iv, i.v. 2 mg/kg) worked out at 20500 ng·h/mL; in series [1] (po, i.g. 5 mg/kg) it was 19700 ng·h/mL. Besides, the Cmax is 4800 ± 1200 ng/mL in series [1] (iv, i.v. 2 mg/kg) and 3020 ± 110 ng/mL in series [1] (po, i.g. 5 mg/kg). Further, in series [1] (iv, i.v. 2 mg/kg), the clearance came out at 1.63 ± 0.11 mL/min/kg. The time of peak concentration (Tmax) in series [1] (iv, i.v. 2 mg/kg) stood at 15 min; in series [1] (po, i.g. 5 mg/kg), 100 ± 34.8 min. Also, the bioavailability in series [1] (oral, i.g. 5 mg/kg vs i.v. 2 mg/kg) came to 38%. In series [1] (po, single intragastric administration of 5 mg/kg), this molecule showed a half-life of 200 ± 31.2 min. The AUC in series [1] (route not given) came to 20600 ± 1500 ng·h/mL.
